This note sets out measurements from patent US20260109707A1, “HETEROBIFUNCTIONAL COMPOUNDS AND METHODS OF TREATING DISEASE” (Halda Therapeutics OpCo. Inc., priority 2022, published 2026).

Structures are written as SMILES. Where two headings read alike, the source gives them in different places.

Experiment [1] has as its system T-Rex 293 cell line SC3 cells lacking increased expression of androgen receptor protein. The experiment can be described thus: Cellular growth inhibition assay, T-Rex 293 SC3 cells without doxycycline (CellTiter-Glo, 72 hours). Type of experiment: cell-based. Particulars: T-Rex 293 cell line SC3 cells not exposed to doxycycline (lacking increased androgen receptor expression). The procedure, abridged: (§1)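 Doxycycline (10 ng/mL) was either included or omitted to toggle wild-type androgen receptor expression in SC3 cells, a T-Rex 293 clone, grown in stripped-serum, phenol red-free medium. After 72 hours with compound, viable cells were quantified by CellTiter-Glo 2.0.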
On the technique in general: Cellular ATP, detected with luciferase, serves as a proxy for viable cell number.

In experiment [2] the test system is T-Rex 293 cell line SC3 cells having increased expression of androgen receptor protein due to exposure to doxycycline. Briefly: Cellular growth inhibition assay, T-Rex 293 SC3 cells with doxycycline (CellTiter-Glo, 72 hours). Type of experiment: cell-based. Particulars: T-Rex 293 SC3 cells with increased androgen receptor expression due to doxycycline (10 ng/mL). The gist of the method: as §1

For the next experiment, the system named is VCaP cells. Briefly: Cellular growth inhibition assay for VCaP cells (CellTiter-Glo, 72 hours). It counts as cell-based, human. The procedure: VCaP cells were purchased from American Type Cell Culture (ATCC Cat #CRL2876) and then seeded on poly-D-lysine coated, black clear-bottom 384-well plates at 5000/well in 25 μL Dulbecco's Modified Eagle Medium (DMEM) supplemented with 10% w/w Fetal bovine serum (FBS) and 1% w/w Pen-Strep. Pen-Strep is a commercially available mixture of penicillin G and streptomycin, which is used in mammalian cell culture media to prevent bacterial contamination. Dulbecco's Modified Eagle Medium (DMEM) supplemented with 10% w/w fetal bovine serum (FBS) and 1% w/w Pen-Strep is herein referred to as Treatment Medium. Following seeding of cells in the plates, the plates were spun at 300×g for 30 seconds, then equilibrated to room temperature for 30 minutes, and then deposited in a humidified tissue culture incubator maintained at 37° C. with 5% C0-2.
At 24 hours after seeding of the cells, dilutions of test compound were prepared in DMSO and dissolved in Treatment Medium, to achieve a final DMSO concentration of 0.5% w/w, thereby providing the Test Compound Solution. A 25 μL aliquot of the Test Compound Solution was added to cells in the well plates. An equal volume of a solution containing DMSO and Treatment Medium was used as a negative control. Following treatment of cells with Test Compound Solution or said equal volume of a solution containing DMSO and Treatment Medium, the plates were spun at 300×g for 30 seconds, and then left in an incubator for 72 hours.
At the end of the treatment duration, cell viability was quantified with CellTiter-Glo 2.0 reagent (Promega Cat #G9243). For this purpose, plates were equilibrated to room temperature for 30 minutes, and then 25 μL of CellTiter-Glo 2.0 reagent was added to cells in the plate wells. Plates were then agitated on a shaker for two minutes at 500 rpm and subsequently incubated at room temperature for 10 minutes. Following incubation, the plates were spun at 3000×g for 30 seconds, then sealed with an optical adhesive cover, and luminescence readings were measured with an EnVision Plate Reader.
Data was normalized using zero luminescence for baseline. A four-parameter non-linear regression curve fit was applied to dose-response data in GraphPad Prism data analysis software to determine the half-maximal growth inhibitory concentration (GI50) for each test compound.

For orientation: GI50 means the concentration that inhibits growth by half. As for `Cc1sc2c(c1C)C(c1ccc(N3CC(C4CCN(c5ccc(C(=O)N[C@H]6CC[C@H](Oc7ccc(C#N)c(Cl)c7)CC6)nn5)CC4)C3)cc1)=NCc1nnc(C)n1-2` [I-451], the GI50 is more than 3000 nM in experiment [1] (72 h); less than 500 nM in experiment [2] (72 h); 500 to 1500 nM in the experiment on VCaP cells (Homo sapiens, VCaP, 72 h).
The corresponding values for `Cc1sc2c(c1C)C(c1ccc(OC3CC4(C3)CC3(CCN(c5ccc(C(=O)N[C@H]6CC[C@H](Oc7ccc(C#N)c(Cl)c7)CC6)nn5)CC3)C4)cc1)=NC1(CC1)c1nnc(C)n1-2` [I-452] are more than 3000 nM, less than 500 nM and less than 500 nM.
For the compound `Cc1sc2c(c1C)C(c1ccc(OC3CC4(C3)CC3(CCN(c5ccc(C(=O)N[C@H]6CC[C@H](Oc7ccc(C#N)c(Cl)c7)CC6)nn5)CC3)C4)cc1)=NCc1nnc(C)n1-2` [I-453], the GI50 in experiment [1] (72 h) was more than 3000 nM; in experiment [2] (72 h), less than 500 nM; in the experiment with VCaP cells (Homo sapiens, VCaP, 72 h) it was less than 500 nM.
As to `Cc1sc2c(c1C)C(c1ccc(C#CC3CC4(CCCN(c5ccc(C(=O)N[C@H]6CC[C@H](Oc7ccc(C#N)c(Cl)c7)CC6)nn5)C4)C3)cn1)=NC(C)c1nnc(C)n1-2` (stereo partly drawn) [I-454], the 50% growth inhibitory concentration (GI50) in experiment [1] was more than 3000 nM; in experiment [2], less than 500 nM; with VCaP cells (Homo sapiens, VCaP, 72 h) it was less than 500 nM.
On to `Cc1sc2c(c1C)C(c1ccc(C#CC3CC4(CCCN(c5ccc(C(=O)N[C@H]6CC[C@H](Oc7ccc(C#N)c(Cl)c7)CC6)nn5)C4)C3)cn1)=NC(C)c1nnc(C)n1-2` (stereo partly drawn) [I-455], for which the GI50 in experiment [1] was more than 3000 nM; in experiment [2], less than 500 nM; in the experiment with VCaP cells, less than 500 nM.
For `Cc1sc2c(c1C)C(c1ccc(C#CC3CC4(CCCN(c5ccc(C(=O)N[C@H]6CC[C@H](Oc7ccc(C#N)c(Cl)c7)CC6)nn5)C4)C3)cn1)=NC(C)c1nnc(C)n1-2` (stereo partly drawn) [I-456], the 50% growth inhibitory concentration (GI50) in experiment [1] is 500 to 1500 nM; in experiment [2], less than 500 nM; in the experiment on VCaP cells, 500 to 1500 nM.
Consider `Cc1sc2c(c1C)C(c1ccc(C#CC3CC4(C3)CN(c3ccc(C(=O)N[C@H]5CC[C@H](Oc6ccc(C#N)c(Cl)c6)CC5)nn3)C4)cn1)=NC(C)c1nnc(C)n1-2` (stereo partly drawn) [I-457], for which the GI50 was more than 3000 nM in experiment [1] (72 h); less than 500 nM in experiment [2] (72 h); less than 500 nM with VCaP cells (Homo sapiens, VCaP, 72 h).
Take `Cc1sc2c(c1C)C(c1ccc(C#CC3CC4(C3)CN(c3ccc(C(=O)N[C@H]5CC[C@H](Oc6ccc(C#N)c(Cl)c6)CC5)nn3)C4)cn1)=N[C@@H](C)c1nnc(C)n1-2` [I-458]: the GI50 was less than 500 nM in experiment [1] (72 h); less than 500 nM in experiment [2] (72 h); less than 500 nM in the experiment on VCaP cells (Homo sapiens, VCaP, 72 h).
Take `Cc1sc2c(c1C)C(c1ccc(C#CC3CC4(CCCN(c5ccc(C(=O)N[C@H]6CC[C@H](Oc7ccc(C#N)c(Cl)c7)CC6)nn5)C4)C3)nc1)=N[C@@H](C)c1nnc(C)n1-2` (stereo partly drawn) [I-459]: the 50% growth inhibitory concentration (GI50) is less than 500 nM in experiment [1] (72 h); less than 500 nM in experiment [2] (72 h); less than 500 nM in the experiment on VCaP cells (Homo sapiens, VCaP, 72 h).
Take `Cc1sc2c(c1C)C(c1ccc(C#CC3CC4(CCCN(c5ccc(C(=O)N[C@H]6CC[C@H](Oc7ccc(C#N)c(Cl)c7)CC6)nn5)C4)C3)nc1)=N[C@@H](C)c1nnc(C)n1-2` (stereo partly drawn) [I-460]: the concentration for 50% growth inhibition (GI50) was 500 to 1500 nM in experiment [1], less than 500 nM in experiment [2] and less than 500 nM in the experiment on VCaP cells.
As for `Cc1sc2c(c1C)C(c1ccc(OC3CC4(CCN(c5ccc(C(=O)N[C@H]6CC[C@H](Oc7ccc(C#N)c(Cl)c7)CC6)nn5)CC4)C3)cn1)=N[C@@H](C)c1nnc(C)n1-2` [I-461], the GI50 was more than 3000 nM in experiment [1]; less than 500 nM in experiment [2]; less than 500 nM in the experiment on VCaP cells (Homo sapiens, VCaP, 72 h).
For the compound `Cc1sc2c(c1C)C(c1ccc(OC3CC4(CCN(c5ccc(C(=O)N[C@H]6CC[C@H](Oc7ccc(C#N)c(Cl)c7)CC6)nn5)CC4)C3)nc1)=N[C@@H](C)c1nnc(C)n1-2` [I-462], the GI50 was more than 3000 nM in experiment [1], less than 500 nM in experiment [2] and less than 500 nM in the experiment on VCaP cells.
As to `Cc1sc2c(c1C)C(c1ccc(N3CC(C4CCN(c5ccc(C(=O)N[C@H]6CC[C@H](Oc7ccc(C#N)c(Cl)c7)CC6)nn5)CC4)C3)nc1)=N[C@@H](C)c1nnc(C)n1-2` [I-463], the 50% growth inhibitory concentration (GI50) is 500 to 1500 nM in experiment [1] (72 h); less than 500 nM in experiment [2] (72 h); 500 to 1500 nM in the experiment with VCaP cells (Homo sapiens, VCaP, 72 h).
